The record followed here is patent US20120149598A1, “FEEDER CELLS FOR TARGET CELL INDUCTION” (priority 2009, published 2012).

Test [1] concerns hTERT+TK-transduced human corneal stromal cells. Kind of test: Susceptibility to ganciclovir treatment, cell count with trypan-blue staining. The test is classed as cell-based. The note with it: n=3. How it is done: (§1) The susceptibilities of the transduced human corneal stromal cells to ganciclovir treatment were investigated by the following process. The hTERT-transduced human corneal stromal cells of Comparative Example and the hTERT+TK-transduced human corneal stromal cells of Example 1 were separately seeded at 2×10^4 cells/cm^2 in a 24-well plate, and cultured under conditions of 37° C. and 5% CO2 (medium: DMEM, 10% FBS, 100 U/ml penicillin and 100 μg/ml streptomycin). On the 1st day after seeding, ganciclovir treatment was started (treatment concentration: 0, 10^−7, […], […], and 10^−4 M; time course: day 0, 2, 4, 6, 8, 10, and 12). The susceptibility of each type of the transduced human corneal stromal cells to ganciclovir treatment was determined using 3 wells for each concentration at each time point (n=3). At each time point, the number of the cells was counted with trypan-blue staining. For counting with trypan-blue staining, an erythrocytometer (hematometer; product name: Burker-Turk deep 1/10 mm; product number: Tokyo No. 0880 (ERMA, Inc.)) was used. Immediately after staining, each sample was placed in a counting chamber of the erythrocytometer. Immediately after that, the number of the cells was counted. The average number of the cells on the zero-day of ganciclovir treatment at each treatment concentration was used as a baseline (100%) for the results of the cell number at each time point.

In test [2] the test system is hTERT-transduced human corneal stromal cells (not transduced with the HSV-TK gene). Described as above. The class given is cell-based. As to conditions: any treatment concentration (up to 10^-4 M), 12th day after ganciclovir treatment, n=3. The method, then:
as §1

Take `Nc1nc(O)c2ncn(COC(CO)CO)c2n1` [ganciclovir]: the “number of the cells after ganciclovir treatment” value was “all the cells died” in test [1] (10^-4 M treatment group, 6th day after ganciclovir treatment); “concentration-dependent decrease in the number of the cells” in test [1] (10^-7, 10^-6 and 10^-5 M groups, from the 8th day after ganciclovir treatment); “did not decrease” in test [2].
